The text below walks through data of PubChem BioAssay (NCI).

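Cultured in 96-well plates, cells were exposed to test compound for 48 hours across five concentrations. GI50 = concentration required for 50% inhibition of growth. The concentration for full growth arrest is given as TGI.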 Bounds are passed on as bounds.

The subject of the first assay is CAKI-1 renal. Kind of assay: growth of human tumour cells (NCI), 48 h.
Compound `N#Cc1nc(CCCN2C(=O)c3ccccc3C2=O)oc1N` registered a TGI greater than 100 µM.
As to `CC(=O)OC1CC2(O)C(CCC3(C)C(c4ccc(=O)oc4)CCC32O)C2(C)C1=CC(O)C1OC12` (centres undefined), the TGI worked out at 0.0968 µM.
`CN(C)CCCNc1cc(O)c2c(c1O)C(=O)c1ccccc1C2=O`: the TGI is 25.7 µM.
Regarding `O=c1c(-c2ccccc2)c(SCCN2CCCCCC2)n(-c2ccccc2)c(=S)n1-c1ccccc1`, the TGI amounted to 99.1 µM.

In a further assay the test system is NCI-H460 lung. Kind of assay: growth of human tumour cells (NCI), 48 h.
As for `Clc1ccc(OCc2nnc(COc3ccc(OCc4nnc(COc5ccc(Cl)cc5Cl)o4)c(Cl)c3)o2)c(Cl)c1`, the TGI is greater than 100 µM.
`O=c1ccn(-c2ccccn2)c(=O)n1-c1ccccn1` returned a TGI greater than 100 µM.
Still for that read-out and setting: the value for `O=C1NC(=S)NC(=O)C1C(c1ccc(Cl)cc1)C1C(=O)NC(=S)NC1=O` was greater than 100 µM.
The same measure, in the same setting: the result for `CCC(=O)Nc1ccc(NS(=O)(=O)c2ccc(Cl)cc2)cc1` reads greater than 100 µM.
On the same count and under the same terms, the value for `c1c(N2CCOCC2)ssc1=[N+]1CCOCC1` was greater than 100 µM; that for `CC(C)(C)c1cc(/C=C2/NC(=O)NC2=O)cc(C(C)(C)C)c1O` was 29.1 µM.
As for `COc1cccc(N2C(=O)CS(=O)(=O)C2c2cccc(Oc3ccccc3)c2)c1` (centres undefined), the TGI stood at 31.1 µM.
The compound `CCCO/N=[N+](\[O-])N(CC)CC` returned a TGI greater than 100 µM.
Same read-out and setting: the result for `CN(C)CCNc1c([N+](=O)[O-])sc2ccc(Cl)cc12` reads greater than 100 µM; that for `CCOC(=O)Cn1nnc2cc(Nc3c(C)[n+]([O-])c4cc(F)c(OCC)cc4[n+]3[O-])ccc21`, greater than 100 µM.
With `S=c1[nH]nc(Cn2c3ccc(Br)cc3c3nc4ccccc4nc32)n1C1CCCCC1`, the TGI was greater than 100 µM.
As for `COc1ccc2c(c1)-c1c(c3cc(OC)ccc3n1CCN(C)C)CC2`, the TGI is 25.9 µM.
In the case of `Oc1c(OCc2nnc(CCCCCCCCc3nnc(COc4ccc5ccccc5c4O)o3)o2)ccc2ccccc12`, the TGI was greater than 100 µM.
Same read-out and setting: the value for `NCCN(CCN(C(=O)Nc1ccccc1)c1ccccc1)C(=O)Nc1ccccc1` was 42.8 µM.
In the case of `O=C1CC(c2ccccc2Cl)C2(C(=O)NC(=O)NC2=O)C(c2ccccc2Cl)C1` (centres undefined), the TGI was greater than 100 µM.
In the case of `CCN(CCCCCCCCCCN1CC(=O)N(CCCCCCCCCCN(CC)Cc2ccccc2OC)CC1=O)Cc1ccccc1OC`, the GI50 was 1.54 µM and the TGI is 3.62 µM.
Consider `O=C1N/N=C\c2ccc(cc2)OCc2cccc(n2)COc2ccc(cc2)/C=N\NC1=O`, for which the TGI is greater than 25 µM.
Compound `CC1CCc2sc3nc4n(c(=O)c3c2C1)CC(C)S4` (centres undefined) yielded a TGI of 65.2 µM.
Still for that read-out and setting: the result for `N#Cc1nc(CCCN2C(=O)c3ccccc3C2=O)oc1N` reads greater than 100 µM.
Compound `CC(=O)OC1CC2(O)C(CCC3(C)C(c4ccc(=O)oc4)CCC32O)C2(C)C1=CC(O)C1OC12` (centres undefined) yielded a TGI of 0.0466 µM.
For the compound `CN(C)CCCNc1cc(O)c2c(c1O)C(=O)c1ccccc1C2=O`, the TGI turned out to be 19.4 µM.
On the same count and under the same terms, the result for `O=c1c(-c2ccccc2)c(SCCN2CCCCCC2)n(-c2ccccc2)c(=S)n1-c1ccccc1` reads greater than 100 µM.

The next assay concerns TK-10 renal. Kind of assay: growth of human tumour cells (NCI), 48 h.
`Cn1c2c(c3ccccc31)CCN1C(=O)C34CCCC3CC21S4` (centres undefined): the TGI is greater than 100 µM.
For the compound `Clc1ccc(OCc2nnc(COc3ccc(OCc4nnc(COc5ccc(Cl)cc5Cl)o4)c(Cl)c3)o2)c(Cl)c1`, the TGI is greater than 100 µM.
Still for that read-out and setting: the result for `O=c1ccn(-c2ccccn2)c(=O)n1-c1ccccn1` reads greater than 100 µM; that for `O=C1NC(=S)NC(=O)C1C(c1ccc(Cl)cc1)C1C(=O)NC(=S)NC1=O`, greater than 100 µM.
`COC(=O)C1=C(C(=O)OC)SC(=C2SC3=C(SC(=C4SCCS4)S3)S2)S1` had a TGI greater than 100 µM.
Still for that read-out and setting: the value for `c1c(N2CCOCC2)ssc1=[N+]1CCOCC1` was greater than 100 µM; that for `CC(C)(C)c1cc(/C=C2/NC(=O)NC2=O)cc(C(C)(C)C)c1O` was 30.2 µM; that for `COc1cccc(N2C(=O)CS(=O)(=O)C2c2cccc(Oc3ccccc3)c2)c1` (centres undefined) was 47.4 µM.
Take `CCCO/N=[N+](\[O-])N(CC)CC`: the TGI was greater than 100 µM.
In the case of `CC(=O)N(C)c1ccc(Nc2ccnc3ccc4nn(C)nc4c23)cc1`, the TGI was found to be 70.2 µM.
`CN(C)CCNc1c([N+](=O)[O-])sc2ccc(Cl)cc12` registered a TGI greater than 100 µM.
Still for that read-out and setting: the result for `CCOC(=O)Cn1nnc2cc(Nc3c(C)[n+]([O-])c4cc(F)c(OCC)cc4[n+]3[O-])ccc21` reads 64.4 µM.
Same read-out and setting: the value for `S=c1[nH]nc(Cn2c3ccc(Br)cc3c3nc4ccccc4nc32)n1C1CCCCC1` was greater than 95.1 µM; that for `COc1ccc2c(c1)-c1c(c3cc(OC)ccc3n1CCN(C)C)CC2` was 28.9 µM.
Turning to `Oc1c(OCc2nnc(CCCCCCCCc3nnc(COc4ccc5ccccc5c4O)o3)o2)ccc2ccccc12`, the TGI is greater than 100 µM.
Still for that read-out and setting: the result for `CCCCCCCCCCCCNC(=O)CCC(NC(=O)c1ccc(N(C)Cc2cnc3nc(N)nc(N)c3n2)cc1)C(=O)NCCCCCCCCCCCC` (centres undefined) reads greater than 100 µM; that for `NCCN(CCN(C(=O)Nc1ccccc1)c1ccccc1)C(=O)Nc1ccccc1`, 60.3 µM; that for `C[C@H](c1ccccc1)N1C(=O)[C@@H](OCc2ccccc2)[C@H]1[C@H](COC(=O)COCc1ccccc1)OCc1ccccc1`, greater than 100 µM.
Same read-out and setting: the value for `O=C1CC(c2ccccc2Cl)C2(C(=O)NC(=O)NC2=O)C(c2ccccc2Cl)C1` (centres undefined) was greater than 100 µM; that for `O=C1N/N=C\c2ccc(cc2)OCc2cccc(n2)COc2ccc(cc2)/C=N\NC1=O` was greater than 25 µM; that for `CC1CCc2sc3nc4n(c(=O)c3c2C1)CC(C)S4` (centres undefined) was 98.7 µM.
On the same count and under the same terms, the result for `N#Cc1nc(CCCN2C(=O)c3ccccc3C2=O)oc1N` reads greater than 100 µM; that for `CN(C)CCCNc1cc(O)c2c(c1O)C(=O)c1ccccc1C2=O`, 22.1 µM; that for `O=c1c(-c2ccccc2)c(SCCN2CCCCCC2)n(-c2ccccc2)c(=S)n1-c1ccccc1`, greater than 100 µM.

The test system of another assay is HS 578T breast. Kind of assay: growth of human tumour cells (NCI), 48 h.
`Cn1c2c(c3ccccc31)CCN1C(=O)C34CCCC3CC21S4` (centres undefined) came in with a TGI greater than 100 µM.
Turning to `Clc1ccc(OCc2nnc(COc3ccc(OCc4nnc(COc5ccc(Cl)cc5Cl)o4)c(Cl)c3)o2)c(Cl)c1`, the TGI was greater than 100 µM.
For `O=c1ccn(-c2ccccn2)c(=O)n1-c1ccccn1`, the TGI was greater than 100 µM.
Same read-out and setting: the value for `COC(=O)C1=C(C(=O)OC)SC(=C2SC3=C(SC(=C4SCCS4)S3)S2)S1` was greater than 100 µM; that for `CCC(=O)Nc1ccc(NS(=O)(=O)c2ccc(Cl)cc2)cc1` was greater than 100 µM.
`CC(C)(C)c1cc(/C=C2/NC(=O)NC2=O)cc(C(C)(C)C)c1O` registered a TGI of 36 µM.
On the same count and under the same terms, the result for `COc1cccc(N2C(=O)CS(=O)(=O)C2c2cccc(Oc3ccccc3)c2)c1` (centres undefined) reads 70 µM; that for `Cc1cnc2[nH]c(-c3cccc(F)c3)cc(=O)c2c1`, 0.0448 µM.
The same measure, in the same setting: the value for `CC(=O)N(C)c1ccc(Nc2ccnc3ccc4nn(C)nc4c23)cc1` was 53.2 µM; that for `CN(C)CCNc1c([N+](=O)[O-])sc2ccc(Cl)cc12` was greater than 100 µM; that for `CCOC(=O)Cn1nnc2cc(Nc3c(C)[n+]([O-])c4cc(F)c(OCC)cc4[n+]3[O-])ccc21` was greater than 100 µM.
In the case of `COc1ccc2c(c1)-c1c(c3cc(OC)ccc3n1CCN(C)C)CC2`, the TGI worked out at 28 µM.
As for `CCCCCCCCCCCCNC(=O)CCC(NC(=O)c1ccc(N(C)Cc2cnc3nc(N)nc(N)c3n2)cc1)C(=O)NCCCCCCCCCCCC` (centres undefined), the TGI is greater than 100 µM.
